Laboratory results from PMC5448077, “Development of an orally available inhibitor of CLK1 for skipping a mutated dystrophin exon in Duchenne muscular dystrophy” (Scientific Reports, 2017).

What was measured:
Assay in all cases: biochemical
[1] = biological target: JAK1 (Homo sapiens, UniProt P23458)
Method in brief: (§1)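 Reactions at room temperature in HEPES buffer (20 mM, pH 7.5, 0.01% Triton X-100, 2 mM DTT) lasted 1 or 5 h depending on kinase, with substrate peptide and ATP-metal. Phosphorylation read by electrophoretic mobility shift or IMAP polarization; kinase activity computed as P/(P + S).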

[2] = biological target: T1, CaMK2α (Homo sapiens, UniProt Q9UQM7)
T1 construct: gene CAMK2A
T1 sequence (Q9UQM7 whole entry): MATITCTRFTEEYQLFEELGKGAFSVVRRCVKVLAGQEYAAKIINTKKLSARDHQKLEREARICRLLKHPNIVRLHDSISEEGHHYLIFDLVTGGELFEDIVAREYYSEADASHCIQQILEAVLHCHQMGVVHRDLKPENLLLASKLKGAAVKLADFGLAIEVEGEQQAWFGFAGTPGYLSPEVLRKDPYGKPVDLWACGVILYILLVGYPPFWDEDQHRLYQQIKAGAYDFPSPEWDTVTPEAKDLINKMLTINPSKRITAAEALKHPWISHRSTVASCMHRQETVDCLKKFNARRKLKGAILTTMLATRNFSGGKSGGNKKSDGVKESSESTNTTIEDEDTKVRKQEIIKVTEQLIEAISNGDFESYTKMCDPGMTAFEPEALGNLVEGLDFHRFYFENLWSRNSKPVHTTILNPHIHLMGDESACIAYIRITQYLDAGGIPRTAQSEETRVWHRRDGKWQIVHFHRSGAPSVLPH
Method in brief: as §1

[3] = biological target: Haspin (Homo sapiens, UniProt Q8TF76)
Chain of Haspin (Q8TF76 whole entry): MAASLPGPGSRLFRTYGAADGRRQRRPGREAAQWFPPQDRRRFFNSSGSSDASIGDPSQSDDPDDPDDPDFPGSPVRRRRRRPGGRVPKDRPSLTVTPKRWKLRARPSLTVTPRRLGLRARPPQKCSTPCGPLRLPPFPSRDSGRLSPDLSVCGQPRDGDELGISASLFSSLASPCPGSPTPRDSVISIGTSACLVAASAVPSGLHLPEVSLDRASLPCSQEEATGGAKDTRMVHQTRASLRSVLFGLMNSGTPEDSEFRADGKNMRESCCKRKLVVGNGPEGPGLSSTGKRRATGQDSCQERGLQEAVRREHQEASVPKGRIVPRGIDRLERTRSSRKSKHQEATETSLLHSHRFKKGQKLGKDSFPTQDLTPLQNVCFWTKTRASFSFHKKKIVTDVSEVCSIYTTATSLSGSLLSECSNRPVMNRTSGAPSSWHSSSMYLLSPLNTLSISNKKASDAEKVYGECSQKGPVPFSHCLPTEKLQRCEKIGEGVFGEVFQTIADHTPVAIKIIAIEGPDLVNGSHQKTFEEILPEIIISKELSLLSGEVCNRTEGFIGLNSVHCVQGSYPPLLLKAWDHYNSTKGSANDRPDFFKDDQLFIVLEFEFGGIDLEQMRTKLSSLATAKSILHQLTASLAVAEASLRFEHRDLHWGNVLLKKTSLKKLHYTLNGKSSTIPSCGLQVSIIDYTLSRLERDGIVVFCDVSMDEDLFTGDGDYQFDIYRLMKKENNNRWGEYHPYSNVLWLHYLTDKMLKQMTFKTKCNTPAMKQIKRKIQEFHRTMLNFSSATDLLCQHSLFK
Method in brief: as §1

[4] = biological target: CDK9/CycT1 (Homo sapiens, UniProt P50750)
Method in brief: as §1

[5] = biological target: T2, FAK (Homo sapiens, UniProt Q05397)
T2 construct: gene PTK2
Method in brief: as §1

[6] = biological target: TSSK2 (Homo sapiens, UniProt Q96PF2)
Method in brief: as §1

[7] = biological target: T3, MGC42105 (Homo sapiens, UniProt Q8IY84)
T3 construct: gene NIM1K
T3 sequence (Q8IY84 whole entry): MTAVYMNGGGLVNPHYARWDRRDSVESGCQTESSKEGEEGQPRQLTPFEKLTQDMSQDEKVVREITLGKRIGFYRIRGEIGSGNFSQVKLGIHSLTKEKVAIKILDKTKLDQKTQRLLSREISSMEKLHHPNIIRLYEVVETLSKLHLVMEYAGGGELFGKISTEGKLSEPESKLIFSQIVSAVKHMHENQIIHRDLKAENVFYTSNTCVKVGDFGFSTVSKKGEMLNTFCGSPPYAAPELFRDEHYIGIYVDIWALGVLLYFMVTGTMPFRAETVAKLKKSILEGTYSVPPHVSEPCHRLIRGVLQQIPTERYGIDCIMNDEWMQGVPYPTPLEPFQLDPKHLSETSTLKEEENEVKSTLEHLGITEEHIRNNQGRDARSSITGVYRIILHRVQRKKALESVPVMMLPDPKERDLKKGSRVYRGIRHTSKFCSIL
Method in brief: as §1

[8] = biological target: IRAK1 (Homo sapiens, UniProt P51617)
Chain of IRAK1 (P51617 whole entry): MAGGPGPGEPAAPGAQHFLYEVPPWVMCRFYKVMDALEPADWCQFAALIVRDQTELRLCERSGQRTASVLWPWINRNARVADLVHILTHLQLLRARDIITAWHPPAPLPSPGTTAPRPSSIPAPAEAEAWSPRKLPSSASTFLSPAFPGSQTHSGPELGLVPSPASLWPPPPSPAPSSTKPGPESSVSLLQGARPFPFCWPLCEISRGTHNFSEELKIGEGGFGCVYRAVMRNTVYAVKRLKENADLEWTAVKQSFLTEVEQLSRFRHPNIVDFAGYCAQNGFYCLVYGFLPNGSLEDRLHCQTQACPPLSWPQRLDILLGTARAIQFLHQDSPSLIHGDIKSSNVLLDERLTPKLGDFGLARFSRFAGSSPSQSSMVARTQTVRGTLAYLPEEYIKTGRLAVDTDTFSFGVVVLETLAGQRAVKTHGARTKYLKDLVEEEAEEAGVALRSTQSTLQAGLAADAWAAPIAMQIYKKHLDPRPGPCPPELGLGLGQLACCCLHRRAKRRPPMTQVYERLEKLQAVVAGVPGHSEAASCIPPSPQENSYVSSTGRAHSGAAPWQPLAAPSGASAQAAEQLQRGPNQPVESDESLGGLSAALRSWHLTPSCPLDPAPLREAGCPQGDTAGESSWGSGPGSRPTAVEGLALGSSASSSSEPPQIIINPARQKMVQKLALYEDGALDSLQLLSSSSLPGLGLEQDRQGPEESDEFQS
Method in brief: as §1

[9] = biological target: WNK1 (Homo sapiens, UniProt Q9H4A3)
Method in brief: as §1

[10] = biological target: HIPK4 (Homo sapiens, UniProt Q8NE63)
Method in brief: as §1

[11] = biological target: T4, CaMK1α (Homo sapiens, UniProt Q14012)
T4 construct: gene CAMK1
Method in brief: as §1

[12] = biological target: T5, TRKC (Homo sapiens, UniProt Q16288)
T5 construct: gene NTRK3
Method in brief: as §1

[13] = biological target: T6, MST4 (Homo sapiens, UniProt Q9P289)
T6 construct: gene STK26
Method in brief: as §1

[14] = biological target: ALK(C1156Y) (Homo sapiens, UniProt Q9UM73, C1156Y)
Method in brief: as §1

[15] = biological target: PKN1 (Homo sapiens, UniProt Q16512)
Method in brief: as §1

[16] = biological target: EPHB4 (Homo sapiens, UniProt P54760)
Chain of EPHB4 (P54760 whole entry): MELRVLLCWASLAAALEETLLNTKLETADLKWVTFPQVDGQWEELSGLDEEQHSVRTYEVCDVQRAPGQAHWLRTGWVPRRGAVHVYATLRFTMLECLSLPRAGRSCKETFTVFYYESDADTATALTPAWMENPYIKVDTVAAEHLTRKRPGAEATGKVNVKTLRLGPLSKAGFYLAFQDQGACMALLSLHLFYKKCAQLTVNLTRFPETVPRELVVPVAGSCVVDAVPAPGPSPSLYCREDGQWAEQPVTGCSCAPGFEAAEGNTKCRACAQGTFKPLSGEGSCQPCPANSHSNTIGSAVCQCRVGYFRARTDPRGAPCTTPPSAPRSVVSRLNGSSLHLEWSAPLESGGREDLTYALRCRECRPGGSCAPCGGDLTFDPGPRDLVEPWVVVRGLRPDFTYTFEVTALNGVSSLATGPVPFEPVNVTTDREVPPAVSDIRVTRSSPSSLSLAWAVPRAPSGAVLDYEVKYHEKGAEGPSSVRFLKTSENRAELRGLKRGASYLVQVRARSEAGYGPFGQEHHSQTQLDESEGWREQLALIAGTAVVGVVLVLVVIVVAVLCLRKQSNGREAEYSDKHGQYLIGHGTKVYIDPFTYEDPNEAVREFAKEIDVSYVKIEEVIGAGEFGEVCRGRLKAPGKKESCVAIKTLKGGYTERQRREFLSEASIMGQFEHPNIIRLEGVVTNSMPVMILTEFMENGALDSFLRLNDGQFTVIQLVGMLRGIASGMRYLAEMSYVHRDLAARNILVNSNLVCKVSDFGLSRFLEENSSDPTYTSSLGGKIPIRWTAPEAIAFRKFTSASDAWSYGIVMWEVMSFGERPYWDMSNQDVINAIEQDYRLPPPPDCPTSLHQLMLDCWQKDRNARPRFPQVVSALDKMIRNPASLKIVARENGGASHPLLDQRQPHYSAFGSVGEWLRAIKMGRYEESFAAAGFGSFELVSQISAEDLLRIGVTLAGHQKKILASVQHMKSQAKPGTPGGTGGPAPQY
Method in brief: as §1

[17] = biological target: T7, LYNa (Homo sapiens, UniProt P07948)
T7 construct: gene LYN; isoform a
Method in brief: as §1

[18] = biological target: NEK7 (Homo sapiens, UniProt Q8TDX7)
Method in brief: as §1

[19] = biological target: T8, MSK2 (Homo sapiens, UniProt O75676)
T8 construct: gene RPS6KA4
Method in brief: as §1

[20] = biological target: PIM3 (Homo sapiens, UniProt Q86V86)
Method in brief: as §1

[21] = biological target: NuaK2 (Homo sapiens, UniProt Q9H093)
Method in brief: as §1

[22] = biological target: DYRK3 (Homo sapiens, UniProt O43781)
Method in brief: as §1

[23] = biological target: MELK (Homo sapiens, UniProt Q14680)
Chain of MELK (Q14680 whole entry): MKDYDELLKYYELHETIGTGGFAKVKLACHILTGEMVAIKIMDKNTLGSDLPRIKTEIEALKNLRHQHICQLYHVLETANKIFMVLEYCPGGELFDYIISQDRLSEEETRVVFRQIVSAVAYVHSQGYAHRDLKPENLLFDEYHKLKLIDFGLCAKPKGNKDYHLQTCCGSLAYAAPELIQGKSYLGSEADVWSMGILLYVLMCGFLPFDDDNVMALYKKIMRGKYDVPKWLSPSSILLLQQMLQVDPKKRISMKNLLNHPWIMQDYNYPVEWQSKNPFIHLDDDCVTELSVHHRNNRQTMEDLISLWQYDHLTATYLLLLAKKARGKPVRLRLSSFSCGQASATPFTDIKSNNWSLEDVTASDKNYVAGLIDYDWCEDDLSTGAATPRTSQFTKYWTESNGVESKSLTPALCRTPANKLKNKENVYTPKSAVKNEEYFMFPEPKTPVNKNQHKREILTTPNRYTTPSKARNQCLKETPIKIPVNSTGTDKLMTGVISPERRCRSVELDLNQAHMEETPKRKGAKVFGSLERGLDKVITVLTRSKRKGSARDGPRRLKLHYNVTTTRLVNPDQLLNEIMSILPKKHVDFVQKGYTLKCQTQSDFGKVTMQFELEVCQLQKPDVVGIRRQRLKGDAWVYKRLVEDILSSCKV
Method in brief: as §1

[24] = biological target: EPHA6 (Homo sapiens, UniProt Q9UF33)
Method in brief: as §1

[25] = biological target: T9, p38δ (Homo sapiens, UniProt O15264)
T9 construct: gene MAPK13
Method in brief: as §1

[26] = biological target: CaMK4 (Homo sapiens, UniProt Q16566)
Method in brief: as §1

[27] = biological target: NEK2 (Homo sapiens, UniProt P51955)
Method in brief: as §1

[28] = biological target: T10, IKKβ (Homo sapiens, UniProt O14920)
T10 construct: gene IKBKB
Method in brief: as §1

[29] = biological target: EGFR(L861Q) (Homo sapiens, UniProt P00533, L861Q)
Method in brief: as §1

[30] = biological target: EPHA8 (Homo sapiens, UniProt P29322)
Chain of EPHA8 (P29322 whole entry): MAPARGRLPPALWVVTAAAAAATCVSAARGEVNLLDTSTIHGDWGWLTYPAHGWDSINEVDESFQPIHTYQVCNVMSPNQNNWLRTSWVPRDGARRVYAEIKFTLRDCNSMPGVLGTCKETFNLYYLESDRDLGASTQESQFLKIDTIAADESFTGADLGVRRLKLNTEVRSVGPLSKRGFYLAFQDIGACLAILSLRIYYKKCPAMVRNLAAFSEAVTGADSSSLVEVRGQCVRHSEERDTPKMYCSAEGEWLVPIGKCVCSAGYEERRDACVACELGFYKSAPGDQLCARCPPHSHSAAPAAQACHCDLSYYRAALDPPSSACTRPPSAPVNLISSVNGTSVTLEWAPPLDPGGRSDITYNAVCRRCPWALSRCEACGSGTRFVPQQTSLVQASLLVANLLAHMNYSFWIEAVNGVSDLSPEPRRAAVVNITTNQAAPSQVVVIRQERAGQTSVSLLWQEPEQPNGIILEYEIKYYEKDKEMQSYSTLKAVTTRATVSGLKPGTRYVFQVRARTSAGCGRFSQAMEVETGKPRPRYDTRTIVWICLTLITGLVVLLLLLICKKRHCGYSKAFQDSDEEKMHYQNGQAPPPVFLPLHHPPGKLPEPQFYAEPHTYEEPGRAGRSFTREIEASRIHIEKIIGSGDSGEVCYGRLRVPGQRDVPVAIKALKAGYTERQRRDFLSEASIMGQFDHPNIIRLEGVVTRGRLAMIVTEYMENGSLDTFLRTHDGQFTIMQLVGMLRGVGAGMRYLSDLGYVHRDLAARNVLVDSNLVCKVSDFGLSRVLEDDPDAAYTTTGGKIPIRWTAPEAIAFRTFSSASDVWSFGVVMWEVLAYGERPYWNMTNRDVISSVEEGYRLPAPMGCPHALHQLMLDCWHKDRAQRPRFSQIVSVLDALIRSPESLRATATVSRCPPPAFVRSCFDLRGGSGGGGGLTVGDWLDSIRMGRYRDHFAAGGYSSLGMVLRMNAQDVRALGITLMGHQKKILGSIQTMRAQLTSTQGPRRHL
Method in brief: as §1

[31] = biological target: T11, TIE2 (Homo sapiens, UniProt Q02763)
T11 construct: gene TEK
Method in brief: as §1

For `c1cc(-c2ccc3[nH]ncc3c2)ccn1` [TG693, 5-(4-pyridinyl)-1H-indazole], the inhibition at 1 µM [1] was -0.7%, the inhibition at 1 µM [2] was -3.3% and the inhibition at 1 µM [3] was 92.8%. The inhibition at 1 µM [4] was 57.8%, the inhibition at 1 µM [5] was 3.6% and the inhibition at 1 µM [6] was -0.1%. The inhibition at 1 µM [7] was -22.2%, the inhibition at 1 µM [8] was 4.2% and the inhibition at 1 µM [9] was 4.1%. It also gave an inhibition at 1 µM [10] of 7.6%, an inhibition at 1 µM [11] of 1.5% and an inhibition at 1 µM [12] of 7.7%. The inhibition at 1 µM [13] was 4.1%, the inhibition at 1 µM [14] was 0.1% and the inhibition at 1 µM [15] was 34.5%. For the same compound, the inhibition at 1 µM [16] was -1.5%, the inhibition at 1 µM [17] was 0.1% and the inhibition at 1 µM [18] was -9%. The inhibition at 1 µM [19] was -5.1%, the inhibition at 1 µM [20] was 6.6% and the inhibition at 1 µM [21] was 0.4%. For the same compound, the inhibition at 1 µM [22] was 64%, the inhibition at 1 µM [23] was 5.7% and the inhibition at 1 µM [24] was -3.5%. It also gave an inhibition at 1 µM [25] of -0.7%, an inhibition at 1 µM [26] of 0.5% and an inhibition at 1 µM [27] of -11.9%. For the same compound, the inhibition at 1 µM [28] was 14.6%, the inhibition at 1 µM [29] was -5.4% and the inhibition at 1 µM [30] was 7.3%. It also gave an inhibition at 1 µM [31] of 9.7%.
